Test results as given in publication PMC4767141, “Discovery of Potent, Orally Bioavailable, Small-Molecule Inhibitors of WNT Signaling from a Cell-Based Pathway Screen” (Journal of Medicinal Chemistry, 2015).

Legend:
JAK2 = target: T1, JAK2 (Homo sapiens, UniProt O60674); experiment: Millipore kinase panel; type: biochemical; settings: read-out: % Control
T1 construct: purchased Millipore KinaseProfiler (kinases); Cerep (receptors and ion channels)

KV channel = experiment: CEREP binding panel; settings: 10 μM, antagonist radioligand
PLK1 = target: T2, PLK1 (Homo sapiens, UniProt P53350); experiment: Millipore kinase panel; type: biochemical; settings: read-out: % Control
T2 construct: purchased Millipore KinaseProfiler (kinases); Cerep (receptors and ion channels)

TAO1 = target: T3, TAO1 (Homo sapiens, UniProt Q7L7X3); experiment: Millipore kinase panel; type: biochemical; settings: read-out: % Control
T3 construct: purchased Millipore KinaseProfiler (kinases); Cerep (receptors and ion channels)

PI3 KINASE (P110A/P85A) = experiment: Millipore kinase panel; type: biochemical; settings: 1 μM, ATP at Km
5-HT5a (h) = target: T4, 5-HT5a (h) (Homo sapiens, UniProt P47898); experiment: CEREP binding panel; settings: agonist radioligand, read-out: % Inhibition of Control Specific Binding
T4 construct: purchased Millipore KinaseProfiler (kinases); Cerep (receptors and ion channels)

MAPKAP-K2 = target: T5, MAPKAP-K2 (Homo sapiens, UniProt P49137); experiment: Millipore kinase panel; type: biochemical; settings: read-out: % Control
T5 construct: purchased Millipore KinaseProfiler (kinases); Cerep (receptors and ion channels)

IRR = target: T6, IRR (Homo sapiens, UniProt P14616); experiment: Millipore kinase panel; type: biochemical; settings: read-out: % Control
T6 construct: purchased Millipore KinaseProfiler (kinases); Cerep (receptors and ion channels)

NEK2 = target: T7, NEK2 (Homo sapiens, UniProt P51955); experiment: Millipore kinase panel; type: biochemical; settings: read-out: % Control
T7 construct: purchased Millipore KinaseProfiler (kinases); Cerep (receptors and ion channels)

MARK1 = target: T8, MARK1 (Homo sapiens, UniProt Q9P0L2); experiment: Millipore kinase panel; type: biochemical; settings: read-out: % Control
T8 construct: purchased Millipore KinaseProfiler (kinases); Cerep (receptors and ion channels)

ARK5 = target: T9, ARK5 (Homo sapiens, UniProt O60285); experiment: Millipore kinase panel; type: biochemical; settings: read-out: % Control
T9 construct: purchased Millipore KinaseProfiler (kinases); Cerep (receptors and ion channels)

ABL = target: T10, ABL (Homo sapiens, UniProt P00519); experiment: Millipore kinase panel; type: biochemical; settings: read-out: % Control
T10 construct: purchased Millipore KinaseProfiler (kinases); Cerep (receptors and ion channels)

FGFR3 = target: T11, FGFR3 (Homo sapiens, UniProt P22607); experiment: Millipore kinase panel; type: biochemical; settings: read-out: % Control
T11 construct: purchased Millipore KinaseProfiler (kinases); Cerep (receptors and ion channels)

MC4 (h) = target: T12, MC4 (h) (Homo sapiens, UniProt P32245); experiment: CEREP binding panel; settings: agonist radioligand, read-out: % Inhibition of Control Specific Binding
T12 construct: purchased Millipore KinaseProfiler (kinases); Cerep (receptors and ion channels)

PDK1 = target: T13, PDK1 (Homo sapiens, UniProt O15530); experiment: Millipore kinase panel; type: biochemical; settings: read-out: % Control
T13 construct: purchased Millipore KinaseProfiler (kinases); Cerep (receptors and ion channels)

BRK = target: T14, BRK (Homo sapiens, UniProt Q13882); experiment: Millipore kinase panel; type: biochemical; settings: read-out: % Control
T14 construct: purchased Millipore KinaseProfiler (kinases); Cerep (receptors and ion channels)

PKCALPHA = target: T15, PKCALPHA (Homo sapiens, UniProt P17252); experiment: Millipore kinase panel; type: biochemical; settings: read-out: % Control
T15 construct: purchased Millipore KinaseProfiler (kinases); Cerep (receptors and ion channels)

PAK2 = target: T16, PAK2 (Homo sapiens, UniProt Q13177); experiment: Millipore kinase panel; type: biochemical; settings: read-out: % Control
T16 construct: purchased Millipore KinaseProfiler (kinases); Cerep (receptors and ion channels)

GRK6 = target: T17, GRK6 (Homo sapiens, UniProt P43250); experiment: Millipore kinase panel; type: biochemical; settings: read-out: % Control
T17 construct: purchased Millipore KinaseProfiler (kinases); Cerep (receptors and ion channels)

M2 (h) = target: T18, M2 (h) (Homo sapiens, UniProt P08172); experiment: CEREP binding panel; settings: antagonist radioligand, read-out: % Inhibition of Control Specific Binding
T18 construct: purchased Millipore KinaseProfiler (kinases); Cerep (receptors and ion channels)

CHK1 = target: T19, CHK1 (Homo sapiens, UniProt O14757); experiment: Millipore kinase panel; type: biochemical; settings: read-out: % Control
T19 construct: purchased Millipore KinaseProfiler (kinases); Cerep (receptors and ion channels)

IRAK4 = target: T20, IRAK4 (Homo sapiens, UniProt Q9NWZ3); experiment: Millipore kinase panel; type: biochemical; settings: read-out: % Control
T20 construct: purchased Millipore KinaseProfiler (kinases); Cerep (receptors and ion channels)

EPHB2 = target: T21, EPHB2 (Homo sapiens, UniProt P29323); experiment: Millipore kinase panel; type: biochemical; settings: read-out: % Control
T21 construct: purchased Millipore KinaseProfiler (kinases); Cerep (receptors and ion channels)

BLK = experiment: Millipore kinase panel; type: biochemical; settings: 1 μM, ATP at Km
SGK2 = target: T22, SGK2 (Homo sapiens, UniProt Q9HBY8); experiment: Millipore kinase panel; type: biochemical; settings: read-out: % Control
T22 construct: purchased Millipore KinaseProfiler (kinases); Cerep (receptors and ion channels)

KDR = target: T23, KDR (Homo sapiens, UniProt P35968); experiment: Millipore kinase panel; type: biochemical; settings: read-out: % Control
T23 construct: purchased Millipore KinaseProfiler (kinases); Cerep (receptors and ion channels)

AXL = target: T24, AXL (Homo sapiens, UniProt P30530); experiment: Millipore kinase panel; type: biochemical; settings: read-out: % Control
T24 construct: purchased Millipore KinaseProfiler (kinases); Cerep (receptors and ion channels)

ZIPK = target: T25, ZIPK (Homo sapiens, UniProt O43293); experiment: Millipore kinase panel; type: biochemical; settings: read-out: % Control
T25 construct: purchased Millipore KinaseProfiler (kinases); Cerep (receptors and ion channels)

GAL2 (h) = target: T26, GAL2 (h) (Homo sapiens, UniProt O43603); experiment: CEREP binding panel; settings: agonist radioligand, read-out: % Inhibition of Control Specific Binding
T26 construct: purchased Millipore KinaseProfiler (kinases); Cerep (receptors and ion channels)

PIM-3 = target: T27, PIM-3 (Homo sapiens, UniProt Q86V86); experiment: Millipore kinase panel; type: biochemical; settings: read-out: % Control
T27 construct: purchased Millipore KinaseProfiler (kinases); Cerep (receptors and ion channels)

CSK = target: T28, CSK (Homo sapiens, UniProt P41240); experiment: Millipore kinase panel; type: biochemical; settings: read-out: % Control
T28 construct: purchased Millipore KinaseProfiler (kinases); Cerep (receptors and ion channels)

IR, ACTIVATED = target: T29, IR, ACTIVATED (Homo sapiens, UniProt P06213); experiment: Millipore kinase panel; type: biochemical; settings: read-out: % Control
T29 construct: purchased Millipore KinaseProfiler (kinases); Cerep (receptors and ion channels)

FLT3 = target: T30, FLT3 (Homo sapiens, UniProt P36888); experiment: Millipore kinase panel; type: biochemical; settings: read-out: % Control
T30 construct: purchased Millipore KinaseProfiler (kinases); Cerep (receptors and ion channels)

MET = target: T31, MET (Homo sapiens, UniProt P08581); experiment: Millipore kinase panel; type: biochemical; settings: read-out: % Control
T31 construct: purchased Millipore KinaseProfiler (kinases); Cerep (receptors and ion channels)

PRK2 = target: T32, PRK2 (Homo sapiens, UniProt Q16513); experiment: Millipore kinase panel; type: biochemical; settings: read-out: % Control
T32 construct: purchased Millipore KinaseProfiler (kinases); Cerep (receptors and ion channels)

HIPK3 = target: T33, HIPK3 (Homo sapiens, UniProt Q9H422); experiment: Millipore kinase panel; type: biochemical; settings: read-out: % Control
T33 construct: purchased Millipore KinaseProfiler (kinases); Cerep (receptors and ion channels)

NK3 (h) = target: T34, NK3 (h) (Homo sapiens, UniProt P29371); experiment: CEREP binding panel; settings: antagonist radioligand, read-out: % Inhibition of Control Specific Binding
T34 construct: purchased Millipore KinaseProfiler (kinases); Cerep (receptors and ion channels)

TLK2 = target: T35, TLK2 (Homo sapiens, UniProt Q86UE8); experiment: Millipore kinase panel; type: biochemical; settings: read-out: % Control
T35 construct: purchased Millipore KinaseProfiler (kinases); Cerep (receptors and ion channels)

RSK3 = target: T36, RSK3 (Homo sapiens, UniProt Q15349); experiment: Millipore kinase panel; type: biochemical; settings: read-out: % Control
T36 construct: purchased Millipore KinaseProfiler (kinases); Cerep (receptors and ion channels)

EPHA1 = target: T37, EPHA1 (Homo sapiens, UniProt P21709); experiment: Millipore kinase panel; type: biochemical; settings: read-out: % Control
T37 construct: purchased Millipore KinaseProfiler (kinases); Cerep (receptors and ion channels)

MST3 = target: T38, MST3 (Homo sapiens, UniProt Q9Y6E0); experiment: Millipore kinase panel; type: biochemical; settings: read-out: % Control
T38 construct: purchased Millipore KinaseProfiler (kinases); Cerep (receptors and ion channels)

VPAC1 (VIP1) (h) = target: T39, VPAC1 (VIP1) (h) (Homo sapiens, UniProt P32241); experiment: CEREP binding panel; settings: agonist radioligand, read-out: % Inhibition of Control Specific Binding
T39 construct: purchased Millipore KinaseProfiler (kinases); Cerep (receptors and ion channels)

CDK2/CYCLINA = target: T40, CDK2/CYCLINA (Homo sapiens, UniProt P24941); experiment: Millipore kinase panel; type: biochemical; settings: read-out: % Control
T40 construct: purchased Millipore KinaseProfiler (kinases); Cerep (receptors and ion channels)

SAPK2B = target: T41, SAPK2B (Homo sapiens, UniProt Q15759); experiment: Millipore kinase panel; type: biochemical; settings: read-out: % Control
T41 construct: purchased Millipore KinaseProfiler (kinases); Cerep (receptors and ion channels)
T41 sequence (Q15759 whole entry): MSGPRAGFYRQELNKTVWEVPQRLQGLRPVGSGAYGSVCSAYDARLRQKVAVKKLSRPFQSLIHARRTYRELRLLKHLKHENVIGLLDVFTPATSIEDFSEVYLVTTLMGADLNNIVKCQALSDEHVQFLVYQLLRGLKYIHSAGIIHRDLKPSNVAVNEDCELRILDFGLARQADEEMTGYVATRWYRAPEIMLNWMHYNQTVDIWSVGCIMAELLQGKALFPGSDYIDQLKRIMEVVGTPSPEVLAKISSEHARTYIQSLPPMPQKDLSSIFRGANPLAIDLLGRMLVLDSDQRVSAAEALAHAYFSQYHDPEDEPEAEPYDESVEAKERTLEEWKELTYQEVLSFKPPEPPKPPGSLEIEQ

T37 sequence (P21709 26-976): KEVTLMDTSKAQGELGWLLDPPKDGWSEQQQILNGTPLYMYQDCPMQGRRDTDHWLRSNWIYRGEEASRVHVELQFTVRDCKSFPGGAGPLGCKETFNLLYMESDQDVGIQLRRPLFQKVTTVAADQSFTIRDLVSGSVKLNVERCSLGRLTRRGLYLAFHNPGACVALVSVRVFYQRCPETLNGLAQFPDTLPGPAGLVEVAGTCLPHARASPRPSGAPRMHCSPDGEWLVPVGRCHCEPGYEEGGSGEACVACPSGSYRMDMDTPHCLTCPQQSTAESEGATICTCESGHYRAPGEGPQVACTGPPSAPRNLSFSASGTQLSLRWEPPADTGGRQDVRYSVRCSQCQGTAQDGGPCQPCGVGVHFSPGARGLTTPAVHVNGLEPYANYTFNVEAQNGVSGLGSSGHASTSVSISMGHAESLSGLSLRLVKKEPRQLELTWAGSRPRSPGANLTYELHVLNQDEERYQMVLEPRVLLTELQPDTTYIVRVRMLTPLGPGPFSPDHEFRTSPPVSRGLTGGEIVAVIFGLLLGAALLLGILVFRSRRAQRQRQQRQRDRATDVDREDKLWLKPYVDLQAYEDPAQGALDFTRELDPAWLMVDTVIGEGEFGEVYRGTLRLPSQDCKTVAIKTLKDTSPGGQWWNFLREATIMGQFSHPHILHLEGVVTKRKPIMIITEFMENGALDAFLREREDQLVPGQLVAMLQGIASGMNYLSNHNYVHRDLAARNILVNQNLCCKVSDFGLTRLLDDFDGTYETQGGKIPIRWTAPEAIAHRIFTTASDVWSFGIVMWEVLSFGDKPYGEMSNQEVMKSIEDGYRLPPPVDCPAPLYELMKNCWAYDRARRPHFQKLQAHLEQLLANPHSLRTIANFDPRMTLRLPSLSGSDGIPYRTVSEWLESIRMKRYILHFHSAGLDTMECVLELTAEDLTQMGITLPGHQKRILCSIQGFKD
T18 sequence (P08172 whole entry): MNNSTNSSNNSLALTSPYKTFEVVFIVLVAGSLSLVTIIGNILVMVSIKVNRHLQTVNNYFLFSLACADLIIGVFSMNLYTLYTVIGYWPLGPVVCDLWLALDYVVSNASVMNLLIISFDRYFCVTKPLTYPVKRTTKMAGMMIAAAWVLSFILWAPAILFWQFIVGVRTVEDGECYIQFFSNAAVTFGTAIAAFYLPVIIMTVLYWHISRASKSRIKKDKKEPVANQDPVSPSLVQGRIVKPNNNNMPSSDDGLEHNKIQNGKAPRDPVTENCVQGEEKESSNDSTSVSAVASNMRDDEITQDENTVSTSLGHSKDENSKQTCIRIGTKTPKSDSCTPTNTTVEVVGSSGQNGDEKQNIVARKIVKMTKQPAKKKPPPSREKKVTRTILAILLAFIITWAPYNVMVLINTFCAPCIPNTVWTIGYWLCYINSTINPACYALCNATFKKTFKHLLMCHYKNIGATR
T32 sequence (Q16513 whole entry): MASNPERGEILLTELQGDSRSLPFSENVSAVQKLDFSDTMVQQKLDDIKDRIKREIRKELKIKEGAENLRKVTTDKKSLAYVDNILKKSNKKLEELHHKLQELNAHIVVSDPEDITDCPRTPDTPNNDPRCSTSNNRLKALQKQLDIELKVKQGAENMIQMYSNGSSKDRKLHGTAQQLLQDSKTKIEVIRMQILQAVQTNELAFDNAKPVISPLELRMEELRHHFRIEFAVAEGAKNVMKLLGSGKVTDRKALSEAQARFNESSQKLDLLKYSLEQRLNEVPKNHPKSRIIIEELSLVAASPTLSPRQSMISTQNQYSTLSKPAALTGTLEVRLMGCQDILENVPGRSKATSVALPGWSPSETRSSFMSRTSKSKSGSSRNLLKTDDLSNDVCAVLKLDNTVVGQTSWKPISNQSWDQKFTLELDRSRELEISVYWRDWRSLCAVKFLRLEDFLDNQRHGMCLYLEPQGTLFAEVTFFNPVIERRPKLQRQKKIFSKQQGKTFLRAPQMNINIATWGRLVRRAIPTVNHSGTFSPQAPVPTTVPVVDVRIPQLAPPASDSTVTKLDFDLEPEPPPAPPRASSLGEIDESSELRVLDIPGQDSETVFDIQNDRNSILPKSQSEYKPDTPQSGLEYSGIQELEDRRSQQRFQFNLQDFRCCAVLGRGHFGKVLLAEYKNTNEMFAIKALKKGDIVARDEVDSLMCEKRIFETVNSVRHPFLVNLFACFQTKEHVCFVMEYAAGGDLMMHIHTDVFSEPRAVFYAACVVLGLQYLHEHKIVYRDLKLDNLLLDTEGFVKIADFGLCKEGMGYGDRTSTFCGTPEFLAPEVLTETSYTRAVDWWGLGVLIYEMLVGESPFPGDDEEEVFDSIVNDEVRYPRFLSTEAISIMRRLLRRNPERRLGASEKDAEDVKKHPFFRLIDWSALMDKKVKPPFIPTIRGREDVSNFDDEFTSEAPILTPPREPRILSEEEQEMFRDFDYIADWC
T38 sequence (Q9Y6E0 whole entry): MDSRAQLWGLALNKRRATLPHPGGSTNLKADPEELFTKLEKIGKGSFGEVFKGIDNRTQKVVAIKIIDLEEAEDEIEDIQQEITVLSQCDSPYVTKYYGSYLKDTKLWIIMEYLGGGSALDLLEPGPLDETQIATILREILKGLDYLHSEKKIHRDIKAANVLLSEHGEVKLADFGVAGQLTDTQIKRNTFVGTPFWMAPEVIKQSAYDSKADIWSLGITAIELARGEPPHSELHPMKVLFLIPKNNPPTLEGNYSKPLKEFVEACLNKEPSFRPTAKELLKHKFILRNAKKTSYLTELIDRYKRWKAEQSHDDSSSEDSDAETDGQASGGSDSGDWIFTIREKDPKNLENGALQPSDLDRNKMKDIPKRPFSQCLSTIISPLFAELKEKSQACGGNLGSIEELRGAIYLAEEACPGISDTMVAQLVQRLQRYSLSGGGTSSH
T31 sequence (P08581 25-1390): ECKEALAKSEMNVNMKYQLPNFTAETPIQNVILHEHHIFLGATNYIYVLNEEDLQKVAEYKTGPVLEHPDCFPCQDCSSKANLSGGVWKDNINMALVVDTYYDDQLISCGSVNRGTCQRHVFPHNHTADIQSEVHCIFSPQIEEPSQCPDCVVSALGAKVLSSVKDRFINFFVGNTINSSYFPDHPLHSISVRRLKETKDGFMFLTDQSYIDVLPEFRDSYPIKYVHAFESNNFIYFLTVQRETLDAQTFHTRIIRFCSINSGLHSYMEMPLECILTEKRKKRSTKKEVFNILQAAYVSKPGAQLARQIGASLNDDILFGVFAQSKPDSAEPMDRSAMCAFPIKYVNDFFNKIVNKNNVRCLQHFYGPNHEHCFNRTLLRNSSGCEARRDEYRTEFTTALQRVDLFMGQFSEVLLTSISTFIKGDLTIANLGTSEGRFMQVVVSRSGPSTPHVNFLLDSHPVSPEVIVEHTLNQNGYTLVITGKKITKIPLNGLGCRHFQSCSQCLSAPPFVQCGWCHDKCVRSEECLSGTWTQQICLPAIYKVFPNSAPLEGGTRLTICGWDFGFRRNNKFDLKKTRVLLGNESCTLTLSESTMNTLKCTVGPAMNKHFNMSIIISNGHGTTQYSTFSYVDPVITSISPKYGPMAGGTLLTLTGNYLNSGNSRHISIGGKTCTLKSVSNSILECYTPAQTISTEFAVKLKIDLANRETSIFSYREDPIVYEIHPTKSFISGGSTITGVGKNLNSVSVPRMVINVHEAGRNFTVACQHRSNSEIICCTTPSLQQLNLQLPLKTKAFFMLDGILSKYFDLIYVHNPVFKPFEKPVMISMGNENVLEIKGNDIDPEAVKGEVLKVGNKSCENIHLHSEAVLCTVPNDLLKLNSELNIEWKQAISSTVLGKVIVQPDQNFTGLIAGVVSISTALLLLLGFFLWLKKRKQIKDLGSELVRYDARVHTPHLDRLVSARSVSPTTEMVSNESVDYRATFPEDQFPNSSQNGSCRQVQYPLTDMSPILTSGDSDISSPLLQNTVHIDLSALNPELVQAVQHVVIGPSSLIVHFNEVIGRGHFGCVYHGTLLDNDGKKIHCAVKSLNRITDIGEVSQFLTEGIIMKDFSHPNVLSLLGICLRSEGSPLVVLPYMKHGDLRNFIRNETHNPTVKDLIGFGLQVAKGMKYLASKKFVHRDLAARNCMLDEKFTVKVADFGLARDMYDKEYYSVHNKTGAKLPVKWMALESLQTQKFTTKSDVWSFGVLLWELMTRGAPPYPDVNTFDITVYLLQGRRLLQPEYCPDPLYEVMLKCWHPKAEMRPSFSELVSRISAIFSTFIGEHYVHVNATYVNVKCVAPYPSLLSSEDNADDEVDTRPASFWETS
T5 sequence (P49137 whole entry): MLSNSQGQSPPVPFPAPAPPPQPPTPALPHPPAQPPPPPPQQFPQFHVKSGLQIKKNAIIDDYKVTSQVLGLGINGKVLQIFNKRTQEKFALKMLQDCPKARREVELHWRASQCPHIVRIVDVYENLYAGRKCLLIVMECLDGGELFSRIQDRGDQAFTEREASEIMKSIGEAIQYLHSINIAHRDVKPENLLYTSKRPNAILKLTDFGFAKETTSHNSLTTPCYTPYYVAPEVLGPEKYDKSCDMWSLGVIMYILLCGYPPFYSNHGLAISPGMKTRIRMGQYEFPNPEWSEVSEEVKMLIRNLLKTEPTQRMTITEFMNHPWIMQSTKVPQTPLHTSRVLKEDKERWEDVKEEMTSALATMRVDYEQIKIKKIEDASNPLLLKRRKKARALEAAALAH

O=C1NCCC12CCN(c1c(Cl)cncc1-c1ccc(N3CCOCC3)cc1)CC2 [Compound 44, 8-(3-Chloro-5-(4-morpholin-4-ylphenyl)pyridin-4-yl)-2,8-diazaspiro[4.5]decan-1-one]
remaining activity at 1 µM (JAK2): 4% | % Inhibition of Control Specific Binding (KV channel): 2% | remaining activity at 1 µM (PLK1): 14% | remaining activity at 1 µM (TAO1): -2% | % Control (PI3 KINASE (P110A/P85A)): 1% | inhibition at 10 µM (5-HT5a (h)): 11% | remaining activity at 1 µM (MAPKAP-K2): 0% | remaining activity at 1 µM (IRR): 1% | remaining activity at 1 µM (NEK2): 3% | remaining activity at 1 µM (MARK1): 4% | remaining activity at 1 µM (ARK5): -2% | remaining activity at 1 µM (ABL): 4% | remaining activity at 1 µM (FGFR3): 10% | inhibition at 10 µM (MC4 (h)): 10% | remaining activity at 1 µM (PDK1): 3% | remaining activity at 1 µM (BRK): 2% | remaining activity at 1 µM (PKCALPHA): -5% | remaining activity at 1 µM (PAK2): 12% | remaining activity at 1 µM (GRK6): -1% | inhibition at 10 µM (M2 (h)): 24% | remaining activity at 1 µM (CHK1): -7% | remaining activity at 1 µM (IRAK4): 2% | remaining activity at 1 µM (EPHB2): -1% | % Control (BLK): 16% | remaining activity at 1 µM (SGK2): -5% | remaining activity at 1 µM (KDR): 21% | remaining activity at 1 µM (AXL): -12% | remaining activity at 1 µM (ZIPK): -10% | inhibition at 10 µM (GAL2 (h)): -22% | remaining activity at 1 µM (PIM-3): 5% | remaining activity at 1 µM (CSK): -1% | remaining activity at 1 µM (IR, ACTIVATED): 17% | remaining activity at 1 µM (FLT3): -7% | remaining activity at 1 µM (MET): -14% | remaining activity at 1 µM (PRK2): 17% | remaining activity at 1 µM (HIPK3): 7% | inhibition at 10 µM (NK3 (h)): 5% | remaining activity at 1 µM (TLK2): -12% | remaining activity at 1 µM (RSK3): 1% | remaining activity at 1 µM (EPHA1): -2% | remaining activity at 1 µM (MST3): 34% | inhibition at 10 µM (VPAC1 (VIP1) (h)): 0% | remaining activity at 1 µM (CDK2/CYCLINA): -9% | remaining activity at 1 µM (SAPK2B): 4%
